Test results published in ChEMBL document CHEMBL4825694 (Eur J Med Chem, 2021).

Legend:
[1] = molecular target: T1, Peroxisome proliferator-activated receptor gamma (Homo sapiens, UniProt P37231); assay: Partial agonist activity at GAL4 DBD-fused PPARgamma LBD (unknown origin) expressed in pG5 luc and pBIND transfected HEK293T cells assessed as transcriptional activation incubated for 12 hrs by fluorescence based luciferase assay
T1 sequence (P37231 whole entry): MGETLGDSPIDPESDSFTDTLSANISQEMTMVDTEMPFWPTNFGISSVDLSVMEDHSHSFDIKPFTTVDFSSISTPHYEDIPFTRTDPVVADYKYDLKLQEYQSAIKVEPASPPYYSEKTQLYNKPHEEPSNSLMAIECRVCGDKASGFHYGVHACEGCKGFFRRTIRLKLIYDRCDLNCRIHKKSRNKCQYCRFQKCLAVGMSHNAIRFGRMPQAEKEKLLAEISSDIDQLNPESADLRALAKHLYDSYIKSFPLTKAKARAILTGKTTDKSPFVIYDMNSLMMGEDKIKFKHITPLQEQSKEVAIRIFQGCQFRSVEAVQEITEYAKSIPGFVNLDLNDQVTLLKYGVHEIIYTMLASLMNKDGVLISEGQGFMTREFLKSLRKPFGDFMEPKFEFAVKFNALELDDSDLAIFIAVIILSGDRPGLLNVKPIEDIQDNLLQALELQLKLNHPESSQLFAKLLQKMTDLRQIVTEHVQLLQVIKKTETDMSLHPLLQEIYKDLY

[2] = molecular target: T1, Peroxisome proliferator-activated receptor gamma; assay: Binding affinity to GAL4-DBD-fused PPARgamma ligand binding domain (unknown origin) expressed in HEK293T cells by spectra-fluorophotometry analysis
[3] = molecular target: T2, Prostaglandin G/H synthase 2 (Homo sapiens, UniProt P35354)
T2 sequence (P35354 whole entry): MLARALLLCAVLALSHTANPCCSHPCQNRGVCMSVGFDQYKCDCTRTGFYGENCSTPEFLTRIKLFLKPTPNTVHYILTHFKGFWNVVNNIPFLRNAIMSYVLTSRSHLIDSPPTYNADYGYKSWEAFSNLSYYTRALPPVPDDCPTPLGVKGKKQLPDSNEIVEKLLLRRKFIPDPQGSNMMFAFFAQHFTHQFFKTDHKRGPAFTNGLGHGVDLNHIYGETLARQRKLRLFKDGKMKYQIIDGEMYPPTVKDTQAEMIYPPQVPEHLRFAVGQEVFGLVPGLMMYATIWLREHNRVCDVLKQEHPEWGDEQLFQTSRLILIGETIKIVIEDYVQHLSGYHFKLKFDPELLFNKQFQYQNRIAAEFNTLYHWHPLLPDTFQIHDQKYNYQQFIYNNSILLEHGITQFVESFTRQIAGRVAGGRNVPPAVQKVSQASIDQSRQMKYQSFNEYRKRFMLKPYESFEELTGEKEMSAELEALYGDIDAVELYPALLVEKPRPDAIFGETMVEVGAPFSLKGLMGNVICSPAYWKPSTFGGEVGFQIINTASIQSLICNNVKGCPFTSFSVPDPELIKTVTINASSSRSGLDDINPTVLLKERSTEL

SMILES	EC50 [1] [µM]	Kd [2] [µM]	IC50 [3] [µM]
COc1cccc(/C=C2/C(C)=C(CC(=O)O)c3cc(F)ccc32)c1	5.3	2.46	–
CC1=C(CC(=O)O)c2cc(F)ccc2/C1=C\c1ccc(C(C)C)cc1	> 50	> 100	–
CC1=C(CC(=O)O)c2cc(F)ccc2/C1=C\c1ccc(Oc2ccccc2)cc1	> 50	> 100	–
CC1=C(CC(=O)O)c2cc(F)ccc2/C1=C\c1ccc(OCc2ccccc2)cc1	> 50	> 100	–

Further lines, results first:

EC50 [1] [µM]	Kd [2] [µM]	IC50 [3] [µM]	SMILES
22.7	> 100	–	CC1=C(CC(=O)O)c2cc(F)ccc2/C1=C\c1ccc([S+](C)[O-])cc1 (configuration not stated)
> 50	> 100	–	CC1=C(CC(=O)O)c2ccccc2/C1=C/c1cccc(C)c1
> 50	> 100	–	CC1=C(CC(=O)O)c2ccccc2/C1=C\c1cccc(C)c1
–	–	286	CC1=C(CC(=O)O)c2cc(F)ccc2/C1=C\c1cccc(OCc2ccccc2)c1
11.7	6.67	–	CC1=C(CC(=O)O)c2cc(F)ccc2/C1=C\c1ccc(F)cc1
